Results as given in patent publication US20070275944A1, “Antioxidants and methods of their use” (The Board of Trustees Operating Michigan State University, priority 2006, published 2007).

Test system: mouse brain, dopaminergic neurons
Experiment: MRI imaging of mouse brain after injection of tracer
Format: in vivo
Conditions: mice, MRI images 48 hours after administration
Text: The central figure is a chimera directly comparing the left hemisphere of the control with the right hemisphere of the TP-TEMPO treated. In this central image the “Y” shaped region (1) is where the dopaminergic neurons are found.
With its dependence on the more biologically variable parameters of proton density, longitudinal relaxation time (T1), and transverse relaxation time (T2), variable image contrast can be achieved by using different pulse sequences and by changing the imaging parameters. Signal intensities on T1, T2, and proton density-weighted images relate to specific tissue characteristics. Moreover, with MRI's multi-planar capability, the imaging plane can be optimized for the anatomic area being studied, and the relationship of lesions to eloquent areas of the brain can be defined more accurately. Since T2-weighted images are most sensitive for detecting brain pathology, patients with suspected intracranial disease are typically screened using the T2-weighted regime. However, it has proven difficult to apply MRI to Parkinson's disease, as the dompaminergic neurons have the same MRI characteristics as the surrounding tissues, so that the Parkinson's lesions are invisible using conventional MRI and can only be detected using histology post-mortem. […]

Compound: CN1CC=C(C2CC(C)(C)N(O)C(C)(C)C2)CC1 [TP-TEMPO, 2,2,6,6-tetramethyl-4-(1-methyl-1,2,3,6-tetrahydropyridin-4-yl)piperidin-1-oxyl]
- migration of probe to the dopaminergic neurons: preferentially migrated to the dopaminergic neurons
- partitioning of probe into the brain: partitioned preferentially into the brain
